Results as given in patent US6306846A, “Anti-inflammatory and anti-ulcer compounds and process” (priority 1995, dated 2001).

Assays:
[1] = Anti-inflammatory test models, overall statement; format: in vivo, rat; conditions: using only one test model
From the text: In order to test the anti-inflammatory activities of my copper coordination compounds, the following test models were employed:
(§1) (1) Carrageen in Foot Edema Model as described in Experentia, 6, pp. 469-71, "Zur Frage des Mechanis Mos der Hemmung des Bindegebswachstums durch Cortisone" (1950);
(2) Cotton Wad Granuloma Model as described in J. Pharmacol. Expt'l. Ther., 141, pp. 369-76, "Anti-inflammatory and Antipyretic Activities of Indomethacin, 9-(p-chlorobenzoyl)-5-Methoxy-2-Methyl-Indole-3-Acetic Acid" (1963); and
(3) Polyarthritis Model as described in Nature, 224, pp. 1320-21, "Effect of Prostaglandin E2 on Adjuvant Arthritis" (1969).

[2] = Carrageenin Foot Edema Model; format: in vivo, rat (male, Sprague Dawley); conditions: hydrocortisone comparison; model not given
Procedure: as §1
The foregoing literature references were followed in the following tests unless otherwise stated and they are incorporated by reference herein. Each test model will only be briefly described. Each test model is a recognized and accepted model for testing drugs for the treatment of arthritis.
In this test model test rats were injected with carrageenin in a hind paw one hour after administration of the copper coordination compound. The carrageenin induced inflammation. The rats were male, of the Sprague Dawley variety and weighed on the average 120 grams. The copper coordination compounds were first introduced subcutaneously. The dosages were compounded as follows:
The suspending agent was Tween 80, a nonionic surfactant sold by the Atlas Powder Company. A full description of it is contained at p. 648 of Remingtons Practice of Pharmacy (11th ed., Martin & Cook, The Mack Publishing Co., Easton Pa. 1956). Generally they may be described as a complex mixture of polyoxyethylene ethers of mixed oleic esters of sorbitol anhydrides. The initial screening dosage was 25 mg of the copper coordination compound given in one injection to ten rats. Compounds which were active received further testing at 5.0 mg and lower dosages. Each dosage was administered to at least ten rats. A dose was rated active if it caused a significant decrease (P<0.05) in the circumference of the feet injected with carrageenin six hours after administration. […] As a reference standard, saline solution plus suspending agent was subcutaneously administered to each of the ten rats.

in vivo = conditions: for TI CFE / TI PA / selectivity ratio: ratio of lethal dose to effective dose
From the text: In addition to the foregoing anti-inflammatory and anti-ulcer tests, several LD50 tests [performed in accordance with Miller et al, Proceed. of The Society of Expt'l. Medicine, 57, p.

(17-Hydroxy-3-oxo-17α-pregn-4,6-diene-21-carboxalato)2n -(aqua)2n -copper(II)n [Example 41]
anti-inflammatory activity at the initial screening tests [1]: no anti-inflammatory activity

CC(=O)[O-].CC(=O)[O-].[Cu+2] [cupric acetate]
% potency compared with hydrocortisone [2]: 340%
LD50 (in vivo; SC): 350 mpk
TI CFE (in vivo; CFE (carrageenin foot edema)): 70
TI PA (in vivo; PA (polyarthritis)): 0

CC(=O)Oc1ccccc1C(=O)O [aspirin, acetylsalicylic acid]
% potency compared with hydrocortisone [2]: 6%
LD50 (in vivo; in vivo): 790 mg/kg
LD50 (in vivo; in vivo, po): 1500 mg/kg

(D-penicillaminato)2n -(aqua)2n -copper(II)n [Example 8]
anti-inflammatory activity at the initial screening tests [1]: no anti-inflammatory activity

O=C(O)c1cccnc1Nc1cccc(C(F)(F)F)c1 [tpan, 2[3(trifluoro-methyl)phenyl]aminonicotinic acid]
% potency compared with hydrocortisone [2]: 31%
selectivity ratio (in vivo; in vivo, TI CFE, CFE (carrageenin foot edema)): 15
selectivity ratio (in vivo; in vivo, TI PA, PA (polyarthritis)): 74
LD50 (in vivo; in vivo, po): 370 ± 25 mg/kg

[2[3(trifluoromethyl)phenyl]aminonicotinato]2n -(aqua)n -copper(II)n [Example 6]
% potency compared with hydrocortisone [2]: 180%
LD50 (in vivo; SC): 650 ± 80 mpk
TI CFE (in vivo; CFE (carrageenin foot edema)): 130
TI PA (in vivo; PA (polyarthritis)): 650

CC(=O)Oc1ccccc1C(=O)[O-].CC(=O)Oc1ccccc1C(=O)[O-].CC(=O)Oc1ccccc1C(=O)[O-].CC(=O)Oc1ccccc1C(=O)[O-].[Cu+2].[Cu+2] [Example 5, Tetra(μ-acetylsalicylato)biscopper(II)]
% potency compared with hydrocortisone [2]: 130%
LD50 (in vivo; SC): 760 ± 100 mpk
TI CFE (in vivo; CFE (carrageenin foot edema)): 150
TI PA (in vivo; PA (polyarthritis)): 760

CC(C)c1cc(C(=O)[O-])c(O)c(C(C)C)c1.CC(C)c1cc(C(=O)[O-])c(O)c(C(C)C)c1.[Cu+2] [Example 4]
% potency compared with hydrocortisone [2]: 50%
LD50 (in vivo; SC): 240 ± 33 mpk
TI CFE (in vivo; CFE (carrageenin foot edema)): 48
TI PA (in vivo; PA (polyarthritis)): 240

NC(Cc1c[nH]c2ccccc12)C(=O)[O-].NC(Cc1c[nH]c2ccccc12)C(=O)[O-].[Cu+2] [Example 1, Bis-L-tryptophanato(O,N)copper(II)]
anti-inflammatory activity at the initial screening tests [1]: no anti-inflammatory activity

Nc1ccccc1C(=O)[O-].Nc1ccccc1C(=O)[O-].[Cu+2] [Example 3, Bisanthranilato(O,N)copper(II)]
% potency compared with hydrocortisone [2]: 60%
LD50 (in vivo; SC): 750 ± 106 mpk
TI CFE (in vivo; CFE (carrageenin foot edema)): 150
TI PA (in vivo; PA (polyarthritis)): 750

N[C@@H](Cc1c[nH]c2ccccc12)C(=O)[O-].N[C@@H](Cc1c[nH]c2ccccc12)C(=O)[O-].[Cu+2] (racemic) [Example 16, Bis(D,L-tryptophanato(O,N)copper(II)]
anti-inflammatory activity at the initial screening tests [1]: no anti-inflammatory activity

(3-p-chlorophenyl-3,4,5,6-tetrahydro-β-carboline-5-carboxylato)2n-(aqua)2n -copper(II)n [Example 30]
anti-inflammatory activity at the initial screening tests [1]: no anti-inflammatory activity
